System: 266295-075-R-J1-PDC spheroid viability
Test: Anticancer human tumor 266295-075-R-J1-PDC patient-derived head and neck squamous carcinoma cell line growth inhibition [POLQ]
Conditions: spheroids with HUVEC and MSC; for IC50: curve of first compound; for viability, T/C: stronger effect = lower value
Summary of the method: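 Growth inhibition in 3D: complex spheroids (tumor PDC, HUVEC, MSC) treated with POLQ inhibitor combinations; where Cmax unknown, highest tested concentration 10 microM, except SN-38 at 1 microM.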

[1] = second compound 0.0316 µM, first compound 0.0316 µM
[2] = second compound 0.0316 µM, first compound 0.1 µM
[3] = second compound 0.0316 µM, first compound 0.316 µM
[4] = second compound 0.0316 µM, first compound 1 µM
[5] = second compound 0.0316 µM, first compound 3.16 µM
[6] = second compound 0.0316 µM, first compound 10 µM
[7] = second compound 0.1 µM, first compound 0.0316 µM
[8] = second compound 0.1 µM, first compound 0.1 µM
[9] = second compound 0.1 µM, first compound 0.316 µM
[10] = second compound 0.1 µM, first compound 1 µM
[11] = second compound 0.1 µM, first compound 3.16 µM
[12] = second compound 0.1 µM, first compound 10 µM
[13] = second compound 0.316 µM, first compound 0.0316 µM
[14] = second compound 0.316 µM, first compound 0.1 µM
[15] = second compound 0.316 µM, first compound 0.316 µM
[16] = second compound 0.316 µM, first compound 1 µM
[17] = second compound 0.316 µM, first compound 3.16 µM
[18] = second compound 0.316 µM, first compound 10 µM
[19] = second compound 1 µM, first compound 0.0316 µM
[20] = second compound 1 µM, first compound 0.1 µM
[21] = second compound 1 µM, first compound 0.316 µM
[22] = second compound 1 µM, first compound 1 µM
[23] = second compound 1 µM, first compound 3.16 µM
[24] = second compound 1 µM, first compound 10 µM
[25] = second compound 3.16 µM, first compound 0.0316 µM
[26] = second compound 3.16 µM, first compound 0.1 µM
[27] = second compound 3.16 µM, first compound 0.316 µM
[28] = second compound 3.16 µM, first compound 1 µM
[29] = second compound 3.16 µM, first compound 3.16 µM
[30] = second compound 3.16 µM, first compound 10 µM
[31] = second compound 10 µM, first compound 0.0316 µM
[32] = second compound 10 µM, first compound 0.1 µM
[33] = second compound 10 µM, first compound 0.316 µM
[34] = second compound 10 µM, first compound 1 µM
[35] = second compound 10 µM, first compound 3.16 µM
[36] = second compound 10 µM, first compound 10 µM
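Note: spheroids exposed to compounds for seven days before readout.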

O=C(Nc1ccc(O)c(NS(=O)(=O)c2ccc(F)cc2)c1)c1ccc(-c2ccccc2)cc1 + COC1C(OC(N)=O)C(O)C(Oc2ccc3c(O)c(NC(=O)c4ccc(O)c(CC=C(C)C)c4)c(=O)oc3c2C)OC1(C)C
IC50 (second compound 0.0316 µM): > 10000 nM
IC50 (second compound 0.1 µM): > 10000 nM
IC50 (second compound 0.316 µM): > 10000 nM
IC50 (second compound 1 µM): > 10000 nM
IC50 (second compound 3.16 µM): > 10000 nM
IC50 (second compound 10 µM): > 10000 nM
viability, T/C [1]: 93.7%
viability, T/C [2]: 96.6%
viability, T/C [3]: 110%
viability, T/C [4]: 110%
viability, T/C [5]: 128%
viability, T/C [6]: 113%
viability, T/C [7]: 112%
viability, T/C [8]: 87.2%
viability, T/C [9]: 109%
viability, T/C [10]: 112%
viability, T/C [11]: 145%
viability, T/C [12]: 107%
viability, T/C [13]: 101%
viability, T/C [14]: 102%
viability, T/C [15]: 116%
viability, T/C [16]: 104%
viability, T/C [17]: 120%
viability, T/C [18]: 103%
viability, T/C [19]: 111%
viability, T/C [20]: 105%
viability, T/C [21]: 99.7%
viability, T/C [22]: 112%
viability, T/C [23]: 130%
viability, T/C [24]: 112%
viability, T/C [25]: 115%
viability, T/C [26]: 96.6%
viability, T/C [27]: 101%
viability, T/C [28]: 119%
viability, T/C [29]: 136%
viability, T/C [30]: 104%
viability, T/C [31]: 115%
viability, T/C [32]: 94.8%
viability, T/C [33]: 110%
viability, T/C [34]: 100%
viability, T/C [35]: 130%
viability, T/C [36]: 103%

COc1cccc2c1C(=O)c1c(O)c3c(c(O)c1C2=O)CC(O)(C(=O)CO)CC3OC1CC(N)C(O)C(C)O1 (centres undefined) + Cc1cccc(N(C)C(=O)C2C(O)CCN2c2nc(C)cc(C(F)(F)F)c2C#N)c1
IC50 (second compound 0.0316 µM): 1580 nM
IC50 (second compound 0.1 µM): 1600 nM
IC50 (second compound 0.316 µM): 1350 nM
IC50 (second compound 1 µM): 1350 nM
IC50 (second compound 3.16 µM): 1120 nM
IC50 (second compound 10 µM): 838 nM
viability, T/C [1]: 69.3%
viability, T/C [2]: 74.4%
viability, T/C [3]: 65.8%
viability, T/C [4]: 59.6%
viability, T/C [5]: 36.1%
viability, T/C [6]: 1.6%
viability, T/C [7]: 79.5%
viability, T/C [8]: 81.9%
viability, T/C [9]: 61.6%
viability, T/C [10]: 60.2%
viability, T/C [11]: 40%
viability, T/C [12]: 1.95%
viability, T/C [13]: 84.5%
viability, T/C [14]: 76%
viability, T/C [15]: 59.8%
viability, T/C [16]: 60.3%
viability, T/C [17]: 36.1%
viability, T/C [18]: 2.38%
viability, T/C [19]: 85.1%
viability, T/C [20]: 90.8%
viability, T/C [21]: 79.4%
viability, T/C [22]: 55.7%
viability, T/C [23]: 28.3%
viability, T/C [24]: 1.59%
viability, T/C [25]: 81.1%
viability, T/C [26]: 81.1%
viability, T/C [27]: 61.6%
viability, T/C [28]: 60.3%
viability, T/C [29]: 19.1%
viability, T/C [30]: 1.26%
viability, T/C [31]: 90.9%
viability, T/C [32]: 84.6%
viability, T/C [33]: 67.7%
viability, T/C [34]: 52.3%
viability, T/C [35]: 9.35%
viability, T/C [36]: 1.42%

From PubChem BioAssay AID1963853 (Molecular Pharmacology Branch, DTP, NCI, 2024)
